From patent US4254049A, “Substituted phenyl-2-cyano-2-alkenoic acid esters” (American Cyanamid Company, priority 1979, dated 1981)

Tests used:
[1] = system: adjuvant induced arthritis; assay: Adjuvant induced arthritis in rats (chronic inflammation accompanied by joint destruction); type: in vivo, rat (Royal Hart, Wistar strain); conditions: oral; for Dead/Treated At 21 Days: once daily days 0 through 13; for % Inhibition of Swelling (Primary lesion), Day 14: * significantly different from adjuvant controls
Protocol: Groups of three Royal Hart, Wistar strain rats weighing 200±10 grams each were injected intradermally in the right hind paw with Freund's adjuvant (dried human tubercle bacilli in a mineral oil vehicle) at a dose of 2 mg./kg. of body weight. Test compound was administered orally in a 1.5% starch vehicle at various doses once daily on days 0 through 13 post challenge. Control rats were treated in a similar manner, but given only starch vehicle. On the 14th and 21st day post challenge the diameter of the injected paw (primary lesion) was measured by micrometer caliper. The volume of inflamed paws were estimated from these measurements and the results are expressed as percent inhibition of swelling as compared to controls. At the same time, the other inflamed sites, such as ears, paws and tail (secondary lesions) were observed and each rat was graded as to degree of inflammation and swelling present. The grading is based on a scale of 0 to 24, where 0 represents a complete absence of induced arthritic nodules and 24 represents the maximum degree of inflammation. The mean grade for each treated group is calculated and the effects of each compound are expressed as percent inhibition of the control grade. Table I records the results of tests conducted with typical compounds of the present invention. These compounds appear to suppress the progression of the arthritis and associated joint deterioration.

[2] = system: articular cartilage breakdown by arthritic synovial tissue; assay: Synovium-cartilage test (hexoseamine/hydroxyproline ratio of cartilage cultured with arthritic synovium); type: cell-based, rabbit (New Zealand); conditions: Oryctolagus cuniculus; 10 mcg./ml.; 48 hours at 37° C.; mean of 3 or 4 tests; active if average greater than 50%; read-out: Mean % Inhibition (suppression of cartilage breakdown)
Protocol: The compounds of the invention have been tested by the synovium-cartilage test which is a modification of the method described by Dumonde, D. C. and Glynn, L. E., The Production of Arthritis in Rabbits by an Immunological Reaction to Fibrin, Brit. J. Exp. Pathol., 43, 373 (1962).
Male, New Zealand rabbits, weighing 1.6-3.0 kg. were used. The rabbits were housed in individual cages and given food and water ad libitum. The rabbits were sensitized to bovine serum albumin (BSA) by injection of 20 mg./kg. BSA in complete Freund's adjuvant. The emulsion was injected subcutaneously into multiple sites on the back. Total injection volume equaled one […]. of body weight. Between 18 and 21 days following immunization, the rabbits were challenged with an intraarticular injection of 5 mg. BSA into the right knee joint. Unanesthetized animals were restrained on their backs, and a 20-gauge, one-inch needle, with a 5 ml. syringe, was introduced into the joint and synovial fluid aspirated to determine that the synovium had been penetrated. The needle was then left in place for injection of the antigen. A 0.5 ml. portion of 10 mg./ml. BSA in sterile saline was injected into the synovial sac. The rabbits received an additional five intraarticular injections of 5 mg. BSA into the right knee at intervals of 12-16 days. Following the sixth injection the rabbits were sacrificed by an intracardiac injection of 5 ml. of a saturated solution of potassium chloride. The right knee was shaved. A longitudinal incision was made over the patellar ligament and the skin reflected under sterile conditions. The patellar ligament was cut transversely and reflected. Fascia and capsular tissue were trimmed from the lateral and medial aspects of the knee exposing the synovial membrane. The membrane was grasped with forceps, stretched laterally and then excised in a single piece on each side of the knee. The infrapatellar fat pad was removed and the joint space widened by cutting the anterior attachments of the menisci and severing the collateral cruciate ligaments. The femur and tibia were then separated and the menisci excised along with sufficient amounts of synovial tissue from the popliteal area adhering to the menisci. The tissues were immediately placed in a sterile Petri dish containing tissue culture medium composed of MEM (Earle's salts) without sodium bicarbonate,with 25 mM Hepes buffer, pH adjusted to 7.34-7.37, and antibiotics (streptomycin and neomycin, 100 units/ml.). Ten percent normal rabbit serum (NRS) was added. The tissues were rinsed three times in fresh medium plus 10% NRS, then cut into pieces of 20-30 mg.
Articular cartilage was obtained from the knees of normal, young rabbits, weighing 1.0 to 1.5 kg. The knees were shaved, the rabbits sacrificed and the joint exposed as described above. […]

arthritic paw swelling = conditions: result in words; cited from earlier work

For C/C(O)=C(\C#N)C(=O)Oc1cccc(Cl)c1Cl [2-Cyano-3-hydroxycrotonic acid, 2,3-dichlorophenyl ester], the “Dead/Treated At 21 Days” value ([1]; 50 mg./kg. body weight) was 11/24, the “Mean Weight Gain, Day 14” value ([1]; 50 mg./kg.) was 36 grams and the “% Inhibition of Swelling (Primary lesion), Day 14” value (shortened to “% Inhibition of Swelling … Day 14”) ([1]; 50 mg./kg.) was 41%. The “% Inhibition of Swelling (Primary lesion), Day 21” value (shortened to “% Inhibition of Swelling … Day 21”) ([1]; 50 mg./kg.) was 0% and the “Mean Weight Gain, Day 21” value ([1]; 50 mg./kg.) was 32 grams.

With C/C(O)=C(\C#N)C(=O)Oc1ccccc1Cl [2-Cyano-3-hydroxycrotonic acid, o-chlorophenyl ester] the “Dead/Treated At 21 Days” value ([1]; 50 mg./kg. body weight) was 0/9, the “Mean Weight Gain, Day 14” value ([1]; 50 mg./kg.) was 25 grams and the “% Inhibition of Swelling … Day 14” value ([1]; 50 mg./kg.) was 57%. The “% Inhibition of Swelling … Day 21” value ([1]; 50 mg./kg.) was 35% and the “Mean Weight Gain, Day 21” value ([1]; 50 mg./kg.) was 29 grams.

Molecule C/C(O)=C(\C#N)C(=O)Oc1ccccc1F [2-Cyano-3-hydroxycrotonic acid, o-fluorophenyl ester] has an inhibition at 10 µg/mL [2] of 52.3%.

Molecule COc1ccccc1OC(=O)/C(C#N)=C(/C)O [2-Cyano-3-hydroxycrotonic acid, o-methoxyphenyl ester] has an inhibition at 10 µg/mL [2] of 49.3%.

In the case of C/C(O)=C(\C#N)C(=O)Oc1ccc(Cl)cc1 [2-Cyano-3-hydroxycrotonic acid, p-chlorophenyl ester], the “Dead/Treated At 21 Days” value ([1]; 25 mg./kg. body weight) is reported as 2/18, the “Mean Weight Gain, Day 14” value ([1]; 25 mg./kg.) is reported as 60 grams and the “% Inhibition of Swelling … Day 14” value ([1]; 25 mg./kg.) is reported as 45%. For the same molecule, the “% Inhibition of Swelling … Day 21” value ([1]; 25 mg./kg.) was 0% and the “Mean Weight Gain, Day 21” value ([1]; 25 mg./kg.) was 46 grams.

With COc1ccc(OC(=O)/C(C#N)=C(/C)O)cc1 [2-Cyano-3-hydroxycrotonic acid, p-methoxyphenyl ester] the inhibition at 10 µg/mL [2] was 58.4%.

Work on C/C(O)=C(\C#N)C(=O)Oc1ccc(C)cc1 [2-Cyano-3-hydroxycrotonic acid, p-tolyl ester] yielded an inhibition at 10 µg/mL [2] of 50.3%.

For COc1ccc2c(c1)c(CC(=O)O)c(C)n2C(=O)c1ccc(Cl)cc1 [indomethacin], the arthritic paw swelling (arthritic paw swelling) is given as “inhibit arthritic paw swelling” and the “joint and bone deterioration” value (arthritic paw swelling) is given as “prevent joint and bone deterioration”.
